Data: US9675591B2, “Methods for treating seizure disorders and pain” (THE REGENTS OF THE UNIVERSITY OF CALIFORNIA, priority 2013, dated 2017)
Like-named read-outs stand apart in the source and are kept apart here.

Tests used:
KCa2.3 (SK3) = KCa2.3 (SK3) (Homo sapiens (Human), UniProt Q9UGI6); experiment: Whole-cell patch-clamp, KCa2.3; format: cell-based; conditions: 250 nM free intracellular Ca2+; read-out: EC50 or IC50, KCa2.3
Method: (§1) HEK-293 or COS-7 cells stably expressing hKCa2.1, rKCa2.2, and hKCa2.3 have been described previously (Sankaranarayanan et al., 2009). Cells were held at −80 mV and KCa currents elicited by dialysis with a K^+ aspartate based internal containing 250 nM free Ca^2+ (pH 7.2, 290 mOsm, pipette resistance 1.5 MΩ). To reduce currents from native chloride channels, Na^+ aspartate Ringer was used as an external solution. KCa2 currents were recorded with 200-ms voltage ramps from −120 to +40 mV applied every 10 s, and the fold increase of slope conductance at −80 mV by drug was taken as a measure of channel activation. Data analysis, fitting, and plotting were performed with IGOR-Pro (Wavemetrics, Lake Oswego, Oreg., USA) and Origin 9.0 (OriginLab, Northampton, Mass., USA).

Nav1.4 = Nav1.4 (Homo sapiens (Human), UniProt P35499); experiment: Voltage-clamp, Nav1.4 in HEK-293 cells; format: cell-based
Nav1.4, sequence (P35499 whole entry): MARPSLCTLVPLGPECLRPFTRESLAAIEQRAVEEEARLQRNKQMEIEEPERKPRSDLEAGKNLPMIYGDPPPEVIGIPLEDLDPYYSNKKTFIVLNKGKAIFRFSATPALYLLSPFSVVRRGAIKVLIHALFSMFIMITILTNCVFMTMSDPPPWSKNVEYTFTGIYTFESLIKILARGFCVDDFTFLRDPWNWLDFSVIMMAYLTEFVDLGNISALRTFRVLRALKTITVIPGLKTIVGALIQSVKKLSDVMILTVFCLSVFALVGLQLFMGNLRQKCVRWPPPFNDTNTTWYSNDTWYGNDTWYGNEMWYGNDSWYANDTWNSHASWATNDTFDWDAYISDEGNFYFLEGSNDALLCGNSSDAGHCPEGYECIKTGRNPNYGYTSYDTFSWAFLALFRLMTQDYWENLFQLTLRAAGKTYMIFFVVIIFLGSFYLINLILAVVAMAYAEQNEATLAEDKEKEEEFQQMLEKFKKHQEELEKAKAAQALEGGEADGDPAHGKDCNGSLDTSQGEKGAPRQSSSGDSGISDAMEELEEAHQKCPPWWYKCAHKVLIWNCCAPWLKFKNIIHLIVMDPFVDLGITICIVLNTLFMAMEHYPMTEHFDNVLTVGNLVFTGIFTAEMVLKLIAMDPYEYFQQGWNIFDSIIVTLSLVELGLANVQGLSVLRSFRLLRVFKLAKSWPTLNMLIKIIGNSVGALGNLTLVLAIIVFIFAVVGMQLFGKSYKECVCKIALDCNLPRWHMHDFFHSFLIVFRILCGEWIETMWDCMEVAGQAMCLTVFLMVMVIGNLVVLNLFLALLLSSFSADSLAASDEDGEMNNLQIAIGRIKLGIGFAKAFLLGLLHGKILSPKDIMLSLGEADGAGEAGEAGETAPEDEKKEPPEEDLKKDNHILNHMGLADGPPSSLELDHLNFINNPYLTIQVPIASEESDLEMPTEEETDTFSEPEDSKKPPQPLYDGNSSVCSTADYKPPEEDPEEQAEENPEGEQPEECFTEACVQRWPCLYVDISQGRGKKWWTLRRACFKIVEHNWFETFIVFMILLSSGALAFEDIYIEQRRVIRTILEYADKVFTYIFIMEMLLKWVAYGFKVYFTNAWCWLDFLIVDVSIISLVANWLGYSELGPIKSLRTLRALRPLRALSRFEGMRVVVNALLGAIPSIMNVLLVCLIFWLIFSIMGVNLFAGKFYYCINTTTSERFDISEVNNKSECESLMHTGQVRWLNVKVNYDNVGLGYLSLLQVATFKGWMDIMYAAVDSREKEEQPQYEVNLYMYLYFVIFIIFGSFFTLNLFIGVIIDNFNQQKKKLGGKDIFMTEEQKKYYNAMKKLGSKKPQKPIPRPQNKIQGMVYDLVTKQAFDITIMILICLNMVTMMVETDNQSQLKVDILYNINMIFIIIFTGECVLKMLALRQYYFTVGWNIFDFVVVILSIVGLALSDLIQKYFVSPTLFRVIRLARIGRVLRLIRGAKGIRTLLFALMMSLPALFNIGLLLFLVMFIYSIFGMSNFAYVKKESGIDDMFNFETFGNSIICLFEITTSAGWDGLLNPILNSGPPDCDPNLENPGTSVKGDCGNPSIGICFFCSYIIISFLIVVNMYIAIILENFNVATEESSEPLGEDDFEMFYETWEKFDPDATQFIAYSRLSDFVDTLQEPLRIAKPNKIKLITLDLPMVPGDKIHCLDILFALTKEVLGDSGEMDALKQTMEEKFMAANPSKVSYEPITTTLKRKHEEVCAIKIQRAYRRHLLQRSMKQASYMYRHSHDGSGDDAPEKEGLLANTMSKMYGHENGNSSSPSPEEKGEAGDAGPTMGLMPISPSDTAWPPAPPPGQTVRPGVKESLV
Method: (§2) All experiments were conducted at room temperature (22-24° C.) with an EPC-10 amplifier and Pulse software (HEKA, Lambrecht/Pfalz, Germany) in the whole-cell mode of the patch-clamp technique. Human embryonic kidney (HEK)-293 cell lines stably expressing hNav1.1, hNav1.5, hNav1.7 channels (generously provided by Dr. Christopher Lossin, University of California Davis), hNav1.4 (Frank Lehmann-Horn, University of Ulm), or hKv2.1 channels (James Trimmer, University of California Davis) were bathed in extracellular solution containing (in mM): 160 NaCl; 4.5 KCl; 1 MgCl2; 2 CaCl2; 10 HEPES [pH was adjusted to 7.4 using NaOH (310 mOsm)]. Pipettes were filled with intracellular solution containing (in mM): 145 KF; 2 MgCl2; 10 ethylene glycol tetraacetic acid; 10 HEPES (pH adjusted to 7.2 with KOH; 300 mOsm). Neuroblastoma N1E-115 cells (ATCC, Manassa, Va., USA) expressing Nav1.2 were patched with a CsF internal solution consisting of (in mM): 10 NaF; 110 CsF; 20 CsCl; 2 ethylene glycol tetraacetic acid; 10 HEPES (CsOH to pH 7.35; 300 mOsm). All pipette tip resistances were 2-4 MΩ. Series resistances of 3-10 MΩ were compensated 40-80%. All cells were voltage-clamped to a holding potential of −90 mV unless otherwise specified. The sampling frequency was 5 kHz. Na^+ currents were elicited by 30-ms pulse to 0 mV from −90 mV applied every 10 s. […]

Nav1.3 = Nav1.3 (Homo sapiens (Human), UniProt Q9NY46); experiment: Voltage-clamp, Nav1.3; format: cell-based; conditions: read-out: EC50 or IC50, Nav1.3
Nav1.3, sequence (Q9NY46 whole entry): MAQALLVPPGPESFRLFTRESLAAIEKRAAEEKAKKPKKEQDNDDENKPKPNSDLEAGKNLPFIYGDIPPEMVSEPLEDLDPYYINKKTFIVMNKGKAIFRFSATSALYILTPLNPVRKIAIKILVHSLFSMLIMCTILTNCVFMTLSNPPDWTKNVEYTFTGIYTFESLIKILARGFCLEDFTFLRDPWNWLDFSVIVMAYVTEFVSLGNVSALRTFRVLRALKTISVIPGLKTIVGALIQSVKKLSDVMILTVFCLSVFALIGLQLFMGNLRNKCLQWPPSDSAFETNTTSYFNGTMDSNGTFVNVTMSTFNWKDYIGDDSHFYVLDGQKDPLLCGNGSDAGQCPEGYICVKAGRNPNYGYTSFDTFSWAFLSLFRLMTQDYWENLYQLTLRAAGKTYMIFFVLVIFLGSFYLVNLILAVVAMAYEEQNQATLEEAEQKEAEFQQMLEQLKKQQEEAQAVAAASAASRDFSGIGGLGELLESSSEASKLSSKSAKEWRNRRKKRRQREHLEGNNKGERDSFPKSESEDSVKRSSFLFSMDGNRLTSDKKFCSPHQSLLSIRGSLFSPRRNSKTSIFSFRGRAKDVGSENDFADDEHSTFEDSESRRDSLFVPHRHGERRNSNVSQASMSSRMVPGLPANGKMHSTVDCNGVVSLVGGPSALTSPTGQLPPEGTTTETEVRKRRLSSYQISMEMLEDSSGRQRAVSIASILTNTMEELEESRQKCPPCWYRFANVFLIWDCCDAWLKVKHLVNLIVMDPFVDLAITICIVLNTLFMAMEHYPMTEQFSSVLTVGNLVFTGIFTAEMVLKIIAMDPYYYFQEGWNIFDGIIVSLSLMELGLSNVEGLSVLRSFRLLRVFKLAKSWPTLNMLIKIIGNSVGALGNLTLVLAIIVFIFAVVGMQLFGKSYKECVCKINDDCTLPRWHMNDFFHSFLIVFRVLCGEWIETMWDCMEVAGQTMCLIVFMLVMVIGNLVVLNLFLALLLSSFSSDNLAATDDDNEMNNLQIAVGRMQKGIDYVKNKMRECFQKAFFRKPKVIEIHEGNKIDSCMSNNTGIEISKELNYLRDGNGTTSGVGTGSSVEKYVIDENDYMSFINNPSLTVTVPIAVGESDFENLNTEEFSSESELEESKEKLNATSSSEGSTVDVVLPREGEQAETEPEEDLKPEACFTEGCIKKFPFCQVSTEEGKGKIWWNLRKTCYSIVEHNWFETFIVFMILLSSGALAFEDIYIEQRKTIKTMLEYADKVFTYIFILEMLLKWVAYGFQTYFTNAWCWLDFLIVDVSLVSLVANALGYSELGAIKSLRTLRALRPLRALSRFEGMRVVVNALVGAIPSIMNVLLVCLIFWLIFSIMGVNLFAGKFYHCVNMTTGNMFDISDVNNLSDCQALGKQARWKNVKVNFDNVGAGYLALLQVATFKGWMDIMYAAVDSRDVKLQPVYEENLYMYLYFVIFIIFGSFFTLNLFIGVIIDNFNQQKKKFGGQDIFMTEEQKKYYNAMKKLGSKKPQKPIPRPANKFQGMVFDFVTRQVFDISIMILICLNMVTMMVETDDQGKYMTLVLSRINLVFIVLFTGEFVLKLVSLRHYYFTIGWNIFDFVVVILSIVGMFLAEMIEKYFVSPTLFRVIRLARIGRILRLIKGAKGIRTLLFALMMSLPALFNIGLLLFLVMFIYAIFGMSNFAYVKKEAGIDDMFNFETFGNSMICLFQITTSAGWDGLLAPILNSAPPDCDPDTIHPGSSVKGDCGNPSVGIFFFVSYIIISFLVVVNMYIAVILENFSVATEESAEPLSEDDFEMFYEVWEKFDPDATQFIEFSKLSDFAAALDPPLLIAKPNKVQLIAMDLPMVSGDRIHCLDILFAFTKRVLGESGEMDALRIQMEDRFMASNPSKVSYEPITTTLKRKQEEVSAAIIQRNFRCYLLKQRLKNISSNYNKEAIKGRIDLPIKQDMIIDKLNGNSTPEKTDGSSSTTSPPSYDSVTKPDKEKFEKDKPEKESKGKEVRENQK

[1] = system: 6-Hz psychomotor seizures; experiment: 6-Hz psychomotor seizure test (ASP); format: in vivo, mice; conditions: for ED50: Mus musculus, ip, mice
Method: Seizures characterized by a minimal clonic phase followed by stereotyped automatistic behaviors (jaw chomping and whisker movement) were induced in mice by a low frequency (6 Hz), long-duration (3 s) stimulus. These seizures resemble automatistic behavior in patients with complex partial seizures. At varying times (0.25, 0.5, 1, 2, and 4 h) after drug treatment, individual mice (four at each time point) were challenged with sufficient current (32 or 44 mA at 6 Hz for 3 s) delivered through corneal electrodes to elicit a psychomotor seizure. Animals not displaying this behavior are considered protected.

[2] = Motor toxicity, horizontal screen test in mice; format: in vivo; conditions: in vivo, ip, i.p. as solution, 10 min time point, read-out: TD50, neurological impairment (horizontal screen)
Method: (§3) Abnormal neurological status in mice following SKA-19 administration was evaluated with the rotorod test. When a normal mouse is placed on a rod 1 inch in diameter that rotates at a speed of 6 rpm, the mouse can maintain equilibrium for a long time. Inability of the mouse to stay on the rotating rod in three trials for 1 min is taken as an indication of motor impairment. […] Mice were placed on a horizontally oriented grid (consisting of parallel 1.5-mm diameter rods situated 1 cm apart), and the grid was inverted. Animals that fell from the grid within 10 s were scored as impaired.
(§4) The mouse maximal electroshock (MES) and 6 Hz seizure models were used. Motor toxicity was assessed using a modification of the horizontal screen test. ED50 values in the seizure models and TD50 values in the toxicity test were determined by nonlinear fitting of dose-response curves. […] Drugs solutions were injected intraperitoneally 10 min prior to administration of the electrical stimulus in a volume of 10 ml/kg body weight.

mice = experiment: Motor toxicity, horizontal screen test in mice; format: in vivo; conditions: i.p. as solution, 10 min time point
Method: as §3, §4

Kv2.1 = Kv2.1 (Homo sapiens (Human), UniProt Q14721); experiment: Voltage-clamp, Kv2.1 in HEK-293 cells; format: cell-based; conditions: read-out: EC50 or IC50, Kv2.1
Kv2.1, sequence (Q14721 whole entry): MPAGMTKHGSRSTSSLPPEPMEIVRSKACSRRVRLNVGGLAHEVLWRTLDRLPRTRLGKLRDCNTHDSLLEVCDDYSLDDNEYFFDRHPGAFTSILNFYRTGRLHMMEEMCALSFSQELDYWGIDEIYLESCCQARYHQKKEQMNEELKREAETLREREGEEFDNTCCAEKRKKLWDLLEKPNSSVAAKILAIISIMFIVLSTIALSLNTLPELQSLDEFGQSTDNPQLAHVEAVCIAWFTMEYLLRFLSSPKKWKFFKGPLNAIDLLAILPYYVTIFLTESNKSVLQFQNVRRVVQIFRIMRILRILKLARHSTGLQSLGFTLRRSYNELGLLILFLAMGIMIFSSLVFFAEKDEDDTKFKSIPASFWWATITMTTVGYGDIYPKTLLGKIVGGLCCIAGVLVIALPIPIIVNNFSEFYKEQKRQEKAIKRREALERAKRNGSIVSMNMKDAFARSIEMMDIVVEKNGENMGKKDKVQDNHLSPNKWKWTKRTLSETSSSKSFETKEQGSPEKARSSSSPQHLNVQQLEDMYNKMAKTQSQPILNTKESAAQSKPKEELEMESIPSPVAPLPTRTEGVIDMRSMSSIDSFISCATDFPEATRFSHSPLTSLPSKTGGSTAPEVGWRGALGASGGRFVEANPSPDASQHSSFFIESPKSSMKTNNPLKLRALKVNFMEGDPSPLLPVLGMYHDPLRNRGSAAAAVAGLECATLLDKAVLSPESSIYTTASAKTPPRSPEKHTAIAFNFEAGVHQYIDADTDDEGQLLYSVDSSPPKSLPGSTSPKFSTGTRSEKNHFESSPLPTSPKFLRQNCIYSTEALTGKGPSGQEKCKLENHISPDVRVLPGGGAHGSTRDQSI
Method: as §2

KCa2.1 = KCa2.1 (Homo sapiens (Human), UniProt Q92952); experiment: Whole-cell patch-clamp, KCa2.1; format: cell-based
Method: as §1

Question: With `Nc1nc2ccc(SC(F)(F)F)cc2s1` [SKA-19, 6-((trifluoromethyl)thio)benzo[d]thiazol-2-amine] as the compound, how does the EC50 (KCa2.3 (SK3)) read?
Answer: 15 µM

Question: And the “block of Nav1.4” value (Nav1.4)?
Answer: low micromolar range

Question: And the IC50 (Nav1.4; read-out: EC50 or IC50, Nav1.4)?
Answer: 4.5 ± 2.7 µM

Question: What about the IC50 (Nav1.3) of the same compound?
Answer: 2.2 ± 1.1 µM

Question: And the “protection in 6-Hz test, initial screen” value ([1]; 10 mg/kg i.p., all other tested time points)?
Answer: partial protection

Question: What about the “protection in 6-Hz test, initial screen” value ([1]; 2 hours after i.p. 10 mg/kg) of the same compound?
Answer: full protection (4 out of 4 animals)

Question: And the ED50 ([1]; 2 h, 32 mA)?
Answer: 12.2 mg/kg

Question: What about the ED50 ([1]; current intensity 44 mA) of the same compound?
Answer: 28.1 mg/kg

Question: And the TD50 at 10 min ([2]; CF-1, mouse)?
Answer: 16.1 mg/kg

Question: What about the TD50 at 10 min ([2]; mouse) of the same compound?
Answer: 16.1 mg/kg

Question: And the “TD50, neurological impairment (horizontal screen)” value (mice)?
Answer: 16.33 mg/kg

Question: What about the IC50 (Kv2.1) of the same compound?
Answer: 22.3 ± 5.6 µM

Question: What about the EC50 (KCa2.1; 250 nM free intracellular Ca2+, read-out: EC50 or IC50, KCa2.1) of the same compound?
Answer: > 100 µM

Question: What about the “effect on KCa2.1 currents” value (KCa2.1; 100 and 200 μM) of the same compound?
Answer: very weak effects
